Assay results: patent publication US7335814B2, “Transgenic cells expressing glucosyltransferase nucleic acids” (The University of York, priority 2000, dated 2008)

Experiments:
Type in all cases: biochemical
recombinant GTase A962 = molecular target: T1, recombinant GTase A962 (Arabidopsis thaliana, UniProt O82382); test: Specific activity of recombinant GTase producing O-glucosides against lignin precursors (HPLC); settings: 30° C.; ND = not detected
T1 construct: made in house; host or cells: E. coli
T1 sequence (O82382 1-474): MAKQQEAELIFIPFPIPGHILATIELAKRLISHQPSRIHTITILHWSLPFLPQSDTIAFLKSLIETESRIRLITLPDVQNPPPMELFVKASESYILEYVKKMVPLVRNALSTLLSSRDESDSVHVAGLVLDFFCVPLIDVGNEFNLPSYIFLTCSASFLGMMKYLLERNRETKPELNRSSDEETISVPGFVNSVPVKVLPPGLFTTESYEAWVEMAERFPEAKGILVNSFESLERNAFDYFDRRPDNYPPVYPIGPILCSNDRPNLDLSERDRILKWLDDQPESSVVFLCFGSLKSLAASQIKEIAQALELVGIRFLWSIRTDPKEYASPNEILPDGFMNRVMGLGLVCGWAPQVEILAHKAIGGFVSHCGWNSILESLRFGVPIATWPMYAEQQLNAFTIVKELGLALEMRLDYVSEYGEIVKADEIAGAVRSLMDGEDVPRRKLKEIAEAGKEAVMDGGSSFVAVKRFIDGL

recombinant GTase A961 = molecular target: T2, recombinant GTase A961 (Arabidopsis thaliana, UniProt O82381); test: as above; settings: 30° C.; ND = not detected
T2 construct: made in house; host or cells: E. coli
T2 sequence (O82381 1-481): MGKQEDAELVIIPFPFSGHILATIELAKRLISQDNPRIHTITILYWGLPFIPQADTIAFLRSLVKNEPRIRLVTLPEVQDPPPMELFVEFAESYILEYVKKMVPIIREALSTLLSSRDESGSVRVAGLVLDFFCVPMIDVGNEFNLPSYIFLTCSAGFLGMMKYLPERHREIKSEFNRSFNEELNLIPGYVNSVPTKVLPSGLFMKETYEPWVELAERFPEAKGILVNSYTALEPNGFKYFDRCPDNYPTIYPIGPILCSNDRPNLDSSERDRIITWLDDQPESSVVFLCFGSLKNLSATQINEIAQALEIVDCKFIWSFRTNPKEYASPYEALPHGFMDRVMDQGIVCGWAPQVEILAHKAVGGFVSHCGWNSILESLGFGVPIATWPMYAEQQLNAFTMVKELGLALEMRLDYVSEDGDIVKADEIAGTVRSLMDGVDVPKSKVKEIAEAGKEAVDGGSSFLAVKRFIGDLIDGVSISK

recombinant GTase A119 = molecular target: T3, recombinant GTase A119 (Arabidopsis thaliana, UniProt Q9LVR1); test: as above; settings: 30° C.; ND = not detected
T3 construct: made in house; host or cells: E. coli
T3 sequence (Q9LVR1 1-481): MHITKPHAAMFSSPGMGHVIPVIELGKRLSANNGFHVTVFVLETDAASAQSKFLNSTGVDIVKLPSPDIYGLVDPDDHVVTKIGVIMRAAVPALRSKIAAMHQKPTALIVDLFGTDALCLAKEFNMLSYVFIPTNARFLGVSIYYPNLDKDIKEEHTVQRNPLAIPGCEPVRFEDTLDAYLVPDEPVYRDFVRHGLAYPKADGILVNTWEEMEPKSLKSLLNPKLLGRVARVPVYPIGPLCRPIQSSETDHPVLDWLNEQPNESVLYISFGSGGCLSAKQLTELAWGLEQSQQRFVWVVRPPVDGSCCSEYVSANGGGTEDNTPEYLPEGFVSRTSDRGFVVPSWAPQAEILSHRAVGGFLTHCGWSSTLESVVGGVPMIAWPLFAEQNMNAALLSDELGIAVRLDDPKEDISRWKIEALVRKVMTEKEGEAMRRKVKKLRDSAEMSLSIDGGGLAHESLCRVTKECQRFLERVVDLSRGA

UGT71C1 = molecular target: T4, UGT71C1 (Arabidopsis thaliana, UniProt O82381); test: UGT71C1 glucosyltransferase specific activity towards phenolic compounds (reverse-phase HPLC); settings: 1 mM phenolic compound, 5 mM UDP-glucose, 50 mM TRIS-HCl pH 7.0, 30° C., 30 min; mean of three replicates ± standard deviation
T4 construct: GST (N); made in house; host or cells: E. coli
T4 sequence (O82381 1-481): T2 sequence (O82381 1-481)

recombinant GTase A062 = molecular target: T5, recombinant GTase A062 (Arabidopsis thaliana, UniProt Q9LR44); test: Specific activity of recombinant GTase producing glucose ester against lignin precursors (HPLC); settings: 0.5 ml of potential substrates, 5 mM UDPG, 0.2 μg GTase, 200 μl, 20° C., 30 min
T5 construct: made in house; host or cells: E. coli
T5 sequence (Q9LR44 1-469): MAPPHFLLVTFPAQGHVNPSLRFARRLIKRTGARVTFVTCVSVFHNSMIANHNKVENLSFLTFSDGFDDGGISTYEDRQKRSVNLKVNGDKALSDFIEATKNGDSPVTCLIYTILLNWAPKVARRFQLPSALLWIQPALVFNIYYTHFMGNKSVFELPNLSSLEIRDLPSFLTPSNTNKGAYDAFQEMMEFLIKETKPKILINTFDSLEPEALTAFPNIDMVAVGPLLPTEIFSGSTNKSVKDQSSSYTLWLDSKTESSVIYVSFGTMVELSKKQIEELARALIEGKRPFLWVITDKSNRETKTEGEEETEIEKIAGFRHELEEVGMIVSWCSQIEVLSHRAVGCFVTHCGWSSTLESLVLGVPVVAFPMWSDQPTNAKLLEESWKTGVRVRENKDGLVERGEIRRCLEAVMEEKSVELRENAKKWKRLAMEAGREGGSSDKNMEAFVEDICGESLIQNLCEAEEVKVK

recombinant GTase A43 = molecular target: T6, recombinant GTase A43 (Arabidopsis thaliana, UniProt O23402); test: as above; settings: 0.5 ml of potential substrates, 5 mM UDPG, 0.2 μg GTase, 200 μl, 20° C., 30 min
T6 construct: made in house; host or cells: E. coli

recombinant GTase A407 = molecular target: T7, recombinant GTase A407 (Arabidopsis thaliana, UniProt O81498); test: Specific activity of recombinant GTase producing O-glucosides against lignin precursors (HPLC); settings: 30° C.; ND = not detected
T7 construct: made in house; host or cells: E. coli
T7 sequence (O81498 1-481): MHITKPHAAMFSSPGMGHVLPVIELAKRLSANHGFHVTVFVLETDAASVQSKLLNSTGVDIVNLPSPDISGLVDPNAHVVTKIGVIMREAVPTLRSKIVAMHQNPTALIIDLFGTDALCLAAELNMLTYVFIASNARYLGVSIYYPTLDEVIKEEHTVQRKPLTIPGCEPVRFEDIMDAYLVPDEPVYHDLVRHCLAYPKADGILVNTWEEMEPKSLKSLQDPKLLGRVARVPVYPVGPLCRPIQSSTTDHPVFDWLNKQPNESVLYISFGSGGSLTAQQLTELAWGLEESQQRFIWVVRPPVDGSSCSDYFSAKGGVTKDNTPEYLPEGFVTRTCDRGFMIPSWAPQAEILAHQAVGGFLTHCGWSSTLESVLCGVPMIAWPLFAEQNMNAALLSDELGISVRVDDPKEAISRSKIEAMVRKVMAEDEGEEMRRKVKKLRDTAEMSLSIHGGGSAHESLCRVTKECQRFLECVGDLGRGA

recombinant GTase A911 = molecular target: T8, recombinant GTase A911 (Arabidopsis thaliana, UniProt O22182); test: Specific activity of recombinant GTase producing glucose ester against lignin precursors (HPLC); parameters: made in house; host or cells: E. coli; settings: 0.5 ml of potential substrates, 5 mM UDPG, 0.2 μg GTase, 200 μl, 20° C., 30 min
T8 sequence (O22182 1-456): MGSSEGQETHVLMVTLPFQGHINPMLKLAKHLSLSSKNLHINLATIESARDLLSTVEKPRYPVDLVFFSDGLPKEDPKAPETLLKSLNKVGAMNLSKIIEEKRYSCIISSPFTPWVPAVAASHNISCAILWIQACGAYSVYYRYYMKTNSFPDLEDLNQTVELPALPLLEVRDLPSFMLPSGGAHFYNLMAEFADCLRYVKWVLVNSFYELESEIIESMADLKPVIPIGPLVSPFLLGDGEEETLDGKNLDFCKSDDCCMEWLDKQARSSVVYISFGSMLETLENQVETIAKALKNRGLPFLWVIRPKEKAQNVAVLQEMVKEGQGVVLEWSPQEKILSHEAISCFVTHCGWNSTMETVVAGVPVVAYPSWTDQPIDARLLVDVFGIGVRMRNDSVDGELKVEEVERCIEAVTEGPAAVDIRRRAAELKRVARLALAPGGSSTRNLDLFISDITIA

recombinant GTase A233 = molecular target: T9, recombinant GTase A233 (Arabidopsis thaliana, UniProt Q8W491); test: Specific activity of recombinant GTase producing O-glucosides against lignin precursors (HPLC); settings: 30° C.; ND = not detected
T9 construct: made in house; host or cells: E. coli

recombinant GTase A41 = molecular target: T10, recombinant GTase A41 (Arabidopsis thaliana, UniProt Q5XF20); test: Specific activity of recombinant GTase producing glucose ester against lignin precursors (HPLC); settings: 5 mM UDPG, 0.2 μg GTase, 200 μl, 20° C., 30 min
T10 construct: made in house; host or cells: E. coli
T10 sequence (Q5XF20 7-490): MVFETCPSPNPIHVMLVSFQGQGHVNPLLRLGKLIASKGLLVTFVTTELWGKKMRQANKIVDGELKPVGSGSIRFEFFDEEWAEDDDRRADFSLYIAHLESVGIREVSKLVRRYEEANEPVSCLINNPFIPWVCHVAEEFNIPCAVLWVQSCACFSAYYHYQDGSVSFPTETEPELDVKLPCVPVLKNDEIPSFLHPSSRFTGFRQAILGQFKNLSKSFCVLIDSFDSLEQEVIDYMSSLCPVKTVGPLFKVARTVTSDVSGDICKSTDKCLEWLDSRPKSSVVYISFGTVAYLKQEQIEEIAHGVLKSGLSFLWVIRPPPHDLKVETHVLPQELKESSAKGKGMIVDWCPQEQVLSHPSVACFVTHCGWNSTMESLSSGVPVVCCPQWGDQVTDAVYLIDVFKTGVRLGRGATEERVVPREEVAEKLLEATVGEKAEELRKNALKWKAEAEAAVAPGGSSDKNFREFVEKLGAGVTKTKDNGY

O=C/C=C/c1ccc(O)cc1 [p-coumaryl aldehyde]
Specific activity of A962 (substrate converted to 4-O-glucoside) (recombinant GTase A962): 0.02 nkat/mg | Specific activity of A961 (substrate converted to 4-O-glucoside) (recombinant GTase A961): 0.01 nkat/mg | Specific activity of A119 (substrate converted to 4-O-glucoside) (recombinant GTase A119): 0.03 nkat/mg

COc1cc(/C=C/C(=O)O)cc(OC)c1O [Sinapic acid, sinapic acid]
Specific activity of A962 (substrate converted to 4-O-glucoside) (recombinant GTase A962): 0.01 nkat/mg | Specific activity (UGT71C1) (UGT71C1): 0 nkat/mg | Specific activity of A062 (substrate converted to glucose ester) (recombinant GTase A062): 0.1 nkat/mg | Specific activity of A43 (substrate converted to glucose ester) (recombinant GTase A43): 0.05 nkat/mg | Specific activity of A407 (substrate converted to 4-O-glucoside) (recombinant GTase A407): 65.39 nkat/mg | Specific activity of A911 (substrate converted to glucose ester) (recombinant GTase A911): 0.15 nkat/mg | Specific activity of A233 (substrate converted to 4-O-glucoside) (recombinant GTase A233): 0.39 nkat/mg | Specific activity of A41 (substrate converted to glucose ester) (recombinant GTase A41): 5.35 nkat/mg | Specific activity of A961 (substrate converted to 4-O-glucoside) (recombinant GTase A961): 0.01 nkat/mg

O=C(O)c1ccc(O)c(O)c1 [3,4-dihydroxybenzoic acid]
Specific activity (UGT71C1) (UGT71C1): 0 nkat/mg

COc1cc(/C=C/C=O)cc(OC)c1O [sinapyl aldehyde]
Specific activity of A962 (substrate converted to 4-O-glucoside) (recombinant GTase A962): 0.50 nkat/mg | Specific activity of A961 (substrate converted to 4-O-glucoside) (recombinant GTase A961): 0.57 nkat/mg | Specific activity of A119 (substrate converted to 4-O-glucoside) (recombinant GTase A119): 4.55 nkat/mg

COc1cc(/C=C/CO)cc(OC)c1O [sinapyl alcohol]
Specific activity of A962 (substrate converted to 4-O-glucoside) (recombinant GTase A962): 0.45 nkat/mg | Specific activity of A407 (substrate converted to 4-O-glucoside) (recombinant GTase A407): 114.76 nkat/mg | Specific activity of A233 (substrate converted to 4-O-glucoside) (recombinant GTase A233): 0.05 nkat/mg | Specific activity of A961 (substrate converted to 4-O-glucoside) (recombinant GTase A961): 0.35 nkat/mg | Specific activity of A119 (substrate converted to 4-O-glucoside) (recombinant GTase A119): 126.16 nkat/mg

COc1cc(/C=C/CO)ccc1O [Coniferyl alcohol, coniferyl alcohol]
Specific activity of A962 (substrate converted to 4-O-glucoside) (recombinant GTase A962): 0.49 nkat/mg | Specific activity of A407 (substrate converted to 4-O-glucoside) (recombinant GTase A407): 2.78 nkat/mg | Specific activity of A233 (substrate converted to 4-O-glucoside) (recombinant GTase A233): 0.46 nkat/mg | Specific activity of A961 (substrate converted to 4-O-glucoside) (recombinant GTase A961): 0.57 nkat/mg

O=C(O)/C=C/c1cccc(O)c1 [m-Coumaric acid]
Specific activity (UGT71C1) (UGT71C1): 1.2 ± 0.2 nkat/mg

O=c1ccc2cc(O)c(O)cc2o1 [Esculetin]
Specific activity (UGT71C1) (UGT71C1): 34.8 ± 4.2 nkat/mg

O=c1c(O)c(-c2ccc(O)c(O)c2)oc2cc(O)cc(O)c12 [Quercetin]
Specific activity (UGT71C1) (UGT71C1): 1.4 ± 0.4 nkat/mg

Catechin
Specific activity (UGT71C1) (UGT71C1): 0 nkat/mg

COc1cc2ccc(=O)oc2cc1O [Scopoletin]
Specific activity (UGT71C1) (UGT71C1): 29.4 ± 3.9 nkat/mg

O=C1C[C@@H](c2ccc(O)c(O)c2)Oc2cc(O)cc(O)c21 [Eriodictyol]
Specific activity (UGT71C1) (UGT71C1): 0 nkat/mg

COc1cc(/C=C/C=O)ccc1O [Coniferyl aldehyde, coniferyl aldehyde]
Specific activity of A962 (substrate converted to 4-O-glucoside) (recombinant GTase A962): 0.34 nkat/mg | Specific activity of A961 (substrate converted to 4-O-glucoside) (recombinant GTase A961): 0.16 nkat/mg | Specific activity of A119 (substrate converted to 4-O-glucoside) (recombinant GTase A119): 1.08 nkat/mg

O=C(O)/C=C/c1ccccc1O [o-Coumaric acid]
Specific activity (UGT71C1) (UGT71C1): 1.5 ± 0.2 nkat/mg

O=c1cc(-c2ccc(O)c(O)c2)oc2cc(O)cc(O)c12 [Luteolin]
Specific activity (UGT71C1) (UGT71C1): 0.7 ± 0.1 nkat/mg

O=C(O)c1ccc(O)cc1 [4-hydroxybenzoic acid]
Specific activity (UGT71C1) (UGT71C1): 0 nkat/mg
